Results from patent publication US20050129610A1, “Imaging agents and methods of imaging alpha7-nicotinic cholinergic receptor” (Johns Hopkins University, priority 2003, published 2005).
pKi: −log10 of the molar value. Where two headings read alike, the source gives them in different places.

Assays:
[1] = target: rat α4β2 nAChR (Rattus norvegicus, UniProt P09483+P12390); assay: Receptor binding assay, rat α4β2 nAChR (selectivity); details: binding selectivity vs rat α4β2 nAChR
Description: (§1) Receptor Binding Assays. The affinities of 1-4 for the rat α4β2 and α7 nAChRs were determined as described previously (Mullen, et al., J. Med. Chem.; 2000;43(22):4045-50). Affinities for the rat 5-HT3 receptor were also determined as described previously (Macor, et al., Bioorg. Med. Chem. Lett. 2001;11(3):319-21). All Ki determinations were done using 5-7 concentrations. […] There was a wide margin in selectivity compared to the α4β2 receptor subtype. Also included are the relative binding affinities to the 5-HT3 receptor, which has high sequence homology to the α7-nAChR.

[2] = target: T1, rat 5-HT3 receptor (Rattus norvegicus, UniProt P35563); assay: Receptor binding assay, rat 5-HT3 receptor (selectivity); details: binding selectivity vs rat 5-HT3 receptor
T1 sequence (P35563 24-483): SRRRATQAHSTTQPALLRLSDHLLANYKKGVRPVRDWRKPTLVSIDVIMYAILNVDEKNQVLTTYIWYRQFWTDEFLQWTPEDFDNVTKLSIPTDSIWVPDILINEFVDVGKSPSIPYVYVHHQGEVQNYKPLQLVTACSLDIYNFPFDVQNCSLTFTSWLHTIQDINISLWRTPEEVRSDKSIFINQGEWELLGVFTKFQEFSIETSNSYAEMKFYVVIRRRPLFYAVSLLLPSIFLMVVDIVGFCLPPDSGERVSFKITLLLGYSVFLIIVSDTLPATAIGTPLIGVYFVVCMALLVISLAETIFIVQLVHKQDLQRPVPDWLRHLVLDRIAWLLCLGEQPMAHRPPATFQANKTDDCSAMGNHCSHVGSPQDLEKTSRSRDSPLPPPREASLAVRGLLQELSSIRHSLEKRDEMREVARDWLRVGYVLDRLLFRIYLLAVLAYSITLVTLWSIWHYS
Description: as §1

[3] = target: rat α7 nAChR (Rattus norvegicus, UniProt Q05941); assay: Receptor binding assay, rat α7 nAChR
Chain of rat α7 nAChR (Q05941 23-502): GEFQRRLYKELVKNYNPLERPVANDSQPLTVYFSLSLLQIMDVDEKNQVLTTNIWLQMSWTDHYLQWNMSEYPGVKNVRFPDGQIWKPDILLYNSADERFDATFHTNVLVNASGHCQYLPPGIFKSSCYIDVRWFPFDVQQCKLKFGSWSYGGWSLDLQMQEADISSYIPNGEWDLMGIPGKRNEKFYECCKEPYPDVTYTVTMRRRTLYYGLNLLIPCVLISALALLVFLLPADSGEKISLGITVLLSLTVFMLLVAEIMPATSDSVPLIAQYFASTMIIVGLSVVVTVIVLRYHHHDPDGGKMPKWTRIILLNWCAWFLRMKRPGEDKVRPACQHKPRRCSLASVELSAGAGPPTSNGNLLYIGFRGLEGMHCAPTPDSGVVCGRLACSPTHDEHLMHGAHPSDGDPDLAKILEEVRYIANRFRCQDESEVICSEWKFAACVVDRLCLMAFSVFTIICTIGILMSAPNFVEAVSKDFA
Description: as §1

[4] = Rodent in vivo biodistribution (brain kinetics); parameters: species or system male CD-1 mice; details: for Brain distribution, F. CTX / Brain distribution, S. COLL / Brain distribution, CB / Brain distribution, CTX / Brain distribution, HIPP / Brain distribution, STR / Brain distribution, THAL / Brain distribution, HYPO: mice; for Brain distribution, CB: cerebellum; for Brain distribution, CTX: cortex; for Brain distribution, HIPP: hippocampus; for Regional selectivity of brain uptake: all time points, in words; for Uptake within the brain (in words): i.v. radiotracer; for Brain distribution, STR: striatum; for Brain distribution, THAL: thalamus; for Brain distribution, HYPO: hypothalamus; for Uptake/retention in target tissue (hippocampus): mouse hippocampus vs other brain substructures, FIG. 1 / FIG. 3
Description: (§2) Rodent In Vivo Biodistribution Studies of 1-4. Male CD-1 mice weighing between 20 and 25 g received an injection of 3.7 MBq (100 μCi) for 1 and 2 and 0.67 MBq ([…]) for 3 and 4 through the tail vein. The corresponding amounts administered were 0.2-0.8 μg/kg for 1 and 2 and 0.01-0.02 μg/kg for 3 and 4. For kinetic studies of 1-4, the mice were killed by cervical dislocation at 5, 15, 30 and 60 min after intravenous injection of radiotracer in 200 μL saline vehicle. The brains were removed and placed on ice, and the cerebellum, olfactory bulb, hypothalamus, hippocampus, striatum, cortex, brain stem and thalamus were harvested. A 45 min time point was obtained for 2 and one at 120 min for 3 and 4. The tissue samples were weighed and their radioactivity determined in an automated □ counter (1282 Compugamma CS; Pharmacia/LKB Nuclear Inc., Gaithersburg, Md.). The radioactivity concentration in aliquots of the injected tracer were determined along with the samples and served as standards for the calculation of percentage injected dose per gram of tissue (% ID/g). To assess binding specificity, subgroups of mice were treated with 10 mg/kg nicotine (for D or increasing doses of unlabeled 4 (0.01-10 mg/kg) 5 min prior to injection of radiotracer. Mice were killed at 30 and 60 min after blockade for 3 and 4, respectively.

[5] = target: T2, α7-nAChR (Mus musculus, UniProt P49582); assay: In vivo binding specificity (receptor blockade) study; parameters: species or system male CD-1 mice
T2 construct: Male CD-1 mice weighing between 20 and 25 g received an injection; from tissue; host or cells: brain of living male CD-1 mice (hippocampus, cortex and other regions)
T2 sequence (P49582 23-502): as the sequence (Q05941 23-502) above, with A402T counted along it
Description: as §2

[6] = rat α7 nAChR, nonradioactive analogs, 5-7 concentrations, read-out: Ki
[7] = 30 min, low specific activity (LSA)
[8] = 60 min, low specific activity (LSA)

Chain of rat α4β2 nAChR (P09483 31-630): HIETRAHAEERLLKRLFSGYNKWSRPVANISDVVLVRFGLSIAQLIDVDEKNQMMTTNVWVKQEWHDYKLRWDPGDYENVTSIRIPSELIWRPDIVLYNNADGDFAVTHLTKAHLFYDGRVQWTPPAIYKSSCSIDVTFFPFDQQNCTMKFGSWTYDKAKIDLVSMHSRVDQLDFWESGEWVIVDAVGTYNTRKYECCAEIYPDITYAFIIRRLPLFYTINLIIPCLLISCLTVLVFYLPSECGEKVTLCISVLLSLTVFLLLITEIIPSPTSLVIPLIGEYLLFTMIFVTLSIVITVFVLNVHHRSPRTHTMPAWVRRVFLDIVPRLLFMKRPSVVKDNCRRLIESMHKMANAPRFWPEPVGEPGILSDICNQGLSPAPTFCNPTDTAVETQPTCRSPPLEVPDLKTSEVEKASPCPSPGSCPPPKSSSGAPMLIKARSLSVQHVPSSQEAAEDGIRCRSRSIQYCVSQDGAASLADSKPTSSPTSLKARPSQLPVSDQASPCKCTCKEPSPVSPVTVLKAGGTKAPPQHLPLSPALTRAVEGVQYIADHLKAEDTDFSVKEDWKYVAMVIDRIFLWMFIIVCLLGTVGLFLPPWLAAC
Chain of rat α4β2 nAChR (P12390 25-500): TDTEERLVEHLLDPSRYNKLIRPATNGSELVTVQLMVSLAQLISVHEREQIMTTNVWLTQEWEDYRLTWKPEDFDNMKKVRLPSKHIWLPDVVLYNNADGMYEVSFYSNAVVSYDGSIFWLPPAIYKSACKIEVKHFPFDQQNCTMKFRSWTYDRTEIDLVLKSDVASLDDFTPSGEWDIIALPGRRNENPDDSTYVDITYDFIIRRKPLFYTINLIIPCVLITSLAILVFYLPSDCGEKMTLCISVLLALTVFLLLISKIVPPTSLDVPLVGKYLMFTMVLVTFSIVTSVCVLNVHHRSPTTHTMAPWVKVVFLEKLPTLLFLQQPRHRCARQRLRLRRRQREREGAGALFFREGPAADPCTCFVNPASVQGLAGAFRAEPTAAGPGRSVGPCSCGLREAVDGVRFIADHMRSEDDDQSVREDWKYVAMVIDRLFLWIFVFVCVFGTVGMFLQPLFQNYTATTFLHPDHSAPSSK

Question: Which α7/α4 [1] does the source give for `O=C(NC1CN2CCC1CC2)c1ccc(Br)cc1` (centres unmarked) [3 (precursor)] here?
Answer: 36000 (1)

Question: What about the α7/5-HT3 [2] of the same compound?
Answer: 280 (1)

Question: And the pKi [3, 6]?
Answer: 7.74

Question: Which results are given for `[11CH3]N(Cc1ccccc1)c1cnc2c(c1)CC1(CN3CCC1CC3)O2` (stereo not drawn) [Compound 1, (2′R)-N-[^11C]methyl-N-(phenylmethyl)-spiro[1-azabicyclo[2.2.2]octane-3,2′(3′H)-furo[2,3-b]pyridin]-5′-amine]?
Answer: α7/α4 [1]: >22,000 (1); α7/5-HT3 [2]: 18 (1); Brain distribution, F. CTX ([4]; 5 min post i.v. injection): 1.77 ± 0.36 % ID/g; Brain distribution, F. CTX ([4]; 15 min post i.v. injection): 1.38 ± 0.25 % ID/g; Brain distribution, F. CTX [4, 7]: 1.28 ± 0.07 % ID/g; Brain distribution, F. CTX ([4]; 30 min post i.v. injection): 0.95 ± 0.06 % ID/g; Brain distribution, F. CTX [4, 8]: 1.07 ± 0.15 % ID/g; Brain distribution, F. CTX ([4]; 60 min post i.v. injection): 0.79 ± 0.11 % ID/g; Brain distribution, S. COLL ([4]; 5 min post i.v. injection): 1.49 ± 0.50 % ID/g; Brain distribution, S. COLL ([4]; 15 min post i.v. injection): 1.42 ± 0.26 % ID/g; Brain distribution, S. COLL [4, 7]: 1.04 ± 0.15 % ID/g; Brain distribution, S. COLL ([4]; 30 min post i.v. injection): 1.09 ± 0.14 % ID/g; Brain distribution, S. COLL [4, 8]: 0.88 ± 0.16 % ID/g; Brain distribution, CB ([4]; 5 min post i.v. injection): 1.66 ± 0.50 % ID/g; Brain distribution, CB ([4]; 15 min post i.v. injection): 1.38 ± 0.32 % ID/g; Brain distribution, CB [4, 7]: 1.00 ± 0.06 % ID/g; Brain distribution, CB ([4]; 30 min post i.v. injection): 1.16 ± 0.19 % ID/g; Brain distribution, CB [4, 8]: 0.65 ± 0.07 % ID/g; Brain distribution, CB ([4]; 60 min post i.v. injection): 0.84 ± 0.05 % ID/g; Brain distribution, CTX ([4]; 5 min post i.v. injection): 1.46 ± 0.48 % ID/g; Brain distribution, CTX ([4]; 15 min post i.v. injection): 1.28 ± 0.21 % ID/g; Brain distribution, CTX [4, 7]: 1.16 ± 0.13 % ID/g; Brain distribution, CTX ([4]; 30 min post i.v. injection): 0.89 ± 0.11 % ID/g; Brain distribution, CTX [4, 8]: 0.86 ± 0.15 % ID/g; Brain distribution, CTX ([4]; 60 min post i.v. injection): 0.69 ± 0.10 % ID/g; Brain distribution, HIPP ([4]; 5 min post i.v. injection): 1.24 ± 0.33 % ID/g; Brain distribution, HIPP ([4]; 15 min post i.v. injection): 1.12 ± 0.15 % ID/g; Brain distribution, HIPP [4, 7]: 1.27 ± 0.09 % ID/g; Brain distribution, HIPP ([4]; 30 min post i.v. injection): 0.91 ± 0.05 % ID/g; Brain distribution, HIPP [4, 8]: 0.98 ± 0.16 % ID/g; Brain distribution, HIPP ([4]; 60 min post i.v. injection): 0.81 ± 0.10 % ID/g; Regional selectivity of brain uptake ([4]; mouse brain): No α7-nAChR-selective, regional brain uptake; Uptake within the brain (in words) ([4]; mouse brain): limited but measurable uptake within the brain; Brain distribution, STR ([4]; 5 min post i.v. injection): 1.47 ± 0.38 % ID/g; Brain distribution, STR ([4]; 15 min post i.v. injection): 1.20 ± 0.15 % ID/g; Brain distribution, STR [4, 7]: 1.20 ± 0.05 % ID/g; Brain distribution, STR ([4]; 30 min post i.v. injection): 0.93 ± 0.10 % ID/g; Brain distribution, STR [4, 8]: 0.75 ± 0.22 % ID/g; Brain distribution, STR ([4]; 60 min post i.v. injection): 0.69 ± 0.06 % ID/g; Brain distribution, THAL ([4]; 5 min post i.v. injection): 1.61 ± 0.61 % ID/g; Brain distribution, THAL ([4]; 15 min post i.v. injection): 1.35 ± 0.28 % ID/g; Brain distribution, THAL [4, 7]: 1.23 ± 0.12 % ID/g; Brain distribution, THAL ([4]; 30 min post i.v. injection): 1.11 ± 0.06 % ID/g; Brain distribution, THAL [4, 8]: 0.81 ± 0.06 % ID/g; Brain distribution, THAL ([4]; 60 min post i.v. injection): 0.77 ± 0.10 % ID/g; Receptor blockade in low specific activity (LSA) studies ([5]; LSA determinations at 30 and 60 min, mice): nor was there evidence of receptor blockade; pKi [3]: 9.27

Question: What does the source list for `[11CH3]Sc1ccc(C(=O)NC2CN3CCC2CC3)cc1` [Compound 2, N—(R)-1-aza-bicyclo[2.2.2]oct-3-yl-4-[^11C]methylsulfanyl-benzamide]?
Answer: α7/α4 [1]: 14,000 (1); α7/5-HT3 [2]: 1100 (1); Brain distribution, CB ([4]; 5 min post i.v. injection): 0.23 ± 0.01 % ID/g; Brain distribution, CB ([4]; 15 min post i.v. injection): 0.26 ± 0.04 % ID/g; Brain distribution, CB ([4]; 30 min post i.v. injection): 0.14 ± 0.03 % ID/g; Brain distribution, CB ([4]; 45 min post i.v. injection): 0.09 ± 0.01 % ID/g; Brain distribution, CB ([4]; 60 min post i.v. injection): 0.08 ± 0.01 % ID/g; Brain distribution, CTX ([4]; 5 min post i.v. injection): 0.16 ± 0.04 % ID/g; Brain distribution, CTX ([4]; 15 min post i.v. injection): 0.17 ± 0.03 % ID/g; Brain distribution, CTX ([4]; 30 min post i.v. injection): 0.14 ± 0.05 % ID/g; Brain distribution, CTX ([4]; 45 min post i.v. injection): 0.10 ± 0.02 % ID/g; Brain distribution, CTX ([4]; 60 min post i.v. injection): 0.10 ± 0.02 % ID/g; Brain distribution, HIPP ([4]; 5 min post i.v. injection): 0.15 ± 0.01 % ID/g; Brain distribution, HIPP ([4]; 15 min post i.v. injection): 0.24 ± 0.04 % ID/g; Brain distribution, HIPP ([4]; 30 min post i.v. injection): 0.14 ± 0.03 % ID/g; Brain distribution, HIPP ([4]; 45 min post i.v. injection): 0.13 ± 0.02 % ID/g; Brain distribution, HIPP ([4]; 60 min post i.v. injection): 0.12 ± 0.02 % ID/g; Brain distribution, HYPO ([4]; 5 min post i.v. injection): 0.30 ± 0.02 % ID/g; Brain distribution, HYPO ([4]; 15 min post i.v. injection): 0.55 ± 0.05 % ID/g; Brain distribution, HYPO ([4]; 30 min post i.v. injection): 0.22 ± 0.04 % ID/g; Brain distribution, HYPO ([4]; 45 min post i.v. injection): 0.22 ± 0.09 % ID/g; Brain distribution, HYPO ([4]; 60 min post i.v. injection): 0.27 ± 0.05 % ID/g; Regional selectivity of brain uptake ([4]; mouse brain): no regional selectivity; Uptake within the brain (in words) ([4]; mouse brain): limited uptake; Brain distribution, STR ([4]; 5 min post i.v. injection): 0.22 ± 0.06 % ID/g; Brain distribution, STR ([4]; 15 min post i.v. injection): 0.37 ± 0.05 % ID/g; Brain distribution, STR ([4]; 30 min post i.v. injection): 0.16 ± 0.03 % ID/g; Brain distribution, STR ([4]; 45 min post i.v. injection): 0.15 ± 0.05 % ID/g; Brain distribution, STR ([4]; 60 min post i.v. injection): 0.18 ± 0.05 % ID/g; Brain distribution, THAL ([4]; 5 min post i.v. injection): 0.18 ± 0.02 % ID/g; Brain distribution, THAL ([4]; 15 min post i.v. injection): 0.26 ± 0.09 % ID/g; Brain distribution, THAL ([4]; 30 min post i.v. injection): 0.13 ± 0.03 % ID/g; Brain distribution, THAL ([4]; 45 min post i.v. injection): 0.10 ± 0.01 % ID/g; Brain distribution, THAL ([4]; 60 min post i.v. injection): 0.14 ± 0.03 % ID/g; pKi [3]: 8.24

Question: For `O=C(NC1CN2CCC1CC2)c1ccc([125I])cc1` [Compound 3, N-(R)-1-Aza-bicyclo[2.2.2]oct-3-yl-4-[^125I]iodo-benzamide], which “Uptake values within the brain” value ([4]; mouse brain, FIG. 1) is on record?
Answer: < 0.4 % ID/g

Question: And the “Uptake/retention in target tissue (hippocampus)” value [4]?
Answer: retention within hippocampus, a target tissue, was demonstrated

Question: What about the “Blocking study (nicotine blockade)” value ([5]; 10 mg/kg nicotine 5 min before radiotracer, mice killed at 30 min, FIG. 2) of the same compound?
Answer: failed to demonstrate regionally-selective blockade, although significantly decreased radiotracer uptake was demonstrated in the regions studied

Question: What does the source list for `[125I]c1occc1-c1cnc2c(c1)CC1(CN3CCC1CC3)O2` (stereo not drawn) [Compound 4, (2′R)-5′-(2-[^125I]iodo-3-furanyl)spiro[1-azabicyclo[2.2.2]octane]-3,2′(3′H)-furo[2,3-b]pyridine]?
Answer: Uptake within the brain (in words) ([4]; mouse brain): gained ready access to the brain; Uptake/retention in target tissue (hippocampus) [4]: modest but higher uptake in target tissue (hippocampus) than within other brain substructures; Receptor blockade study ([5]; unlabeled 4 (0.01-10 mg/kg) 5 min before radiotracer, mice killed at 60 min, FIG. 4): significant blockade in the target tissue and slightly less so in cortex; pKi [3, 6]: 9.59
